According to article PMC2902375 (Neuroreport, 2009):

Biological target: CACNA1H (Homo sapiens, UniProt O95180)
Assay: whole-cell voltage clamp, HEK-293
Assay type: cell-based

Chain of CACNA1H (O95180 whole entry): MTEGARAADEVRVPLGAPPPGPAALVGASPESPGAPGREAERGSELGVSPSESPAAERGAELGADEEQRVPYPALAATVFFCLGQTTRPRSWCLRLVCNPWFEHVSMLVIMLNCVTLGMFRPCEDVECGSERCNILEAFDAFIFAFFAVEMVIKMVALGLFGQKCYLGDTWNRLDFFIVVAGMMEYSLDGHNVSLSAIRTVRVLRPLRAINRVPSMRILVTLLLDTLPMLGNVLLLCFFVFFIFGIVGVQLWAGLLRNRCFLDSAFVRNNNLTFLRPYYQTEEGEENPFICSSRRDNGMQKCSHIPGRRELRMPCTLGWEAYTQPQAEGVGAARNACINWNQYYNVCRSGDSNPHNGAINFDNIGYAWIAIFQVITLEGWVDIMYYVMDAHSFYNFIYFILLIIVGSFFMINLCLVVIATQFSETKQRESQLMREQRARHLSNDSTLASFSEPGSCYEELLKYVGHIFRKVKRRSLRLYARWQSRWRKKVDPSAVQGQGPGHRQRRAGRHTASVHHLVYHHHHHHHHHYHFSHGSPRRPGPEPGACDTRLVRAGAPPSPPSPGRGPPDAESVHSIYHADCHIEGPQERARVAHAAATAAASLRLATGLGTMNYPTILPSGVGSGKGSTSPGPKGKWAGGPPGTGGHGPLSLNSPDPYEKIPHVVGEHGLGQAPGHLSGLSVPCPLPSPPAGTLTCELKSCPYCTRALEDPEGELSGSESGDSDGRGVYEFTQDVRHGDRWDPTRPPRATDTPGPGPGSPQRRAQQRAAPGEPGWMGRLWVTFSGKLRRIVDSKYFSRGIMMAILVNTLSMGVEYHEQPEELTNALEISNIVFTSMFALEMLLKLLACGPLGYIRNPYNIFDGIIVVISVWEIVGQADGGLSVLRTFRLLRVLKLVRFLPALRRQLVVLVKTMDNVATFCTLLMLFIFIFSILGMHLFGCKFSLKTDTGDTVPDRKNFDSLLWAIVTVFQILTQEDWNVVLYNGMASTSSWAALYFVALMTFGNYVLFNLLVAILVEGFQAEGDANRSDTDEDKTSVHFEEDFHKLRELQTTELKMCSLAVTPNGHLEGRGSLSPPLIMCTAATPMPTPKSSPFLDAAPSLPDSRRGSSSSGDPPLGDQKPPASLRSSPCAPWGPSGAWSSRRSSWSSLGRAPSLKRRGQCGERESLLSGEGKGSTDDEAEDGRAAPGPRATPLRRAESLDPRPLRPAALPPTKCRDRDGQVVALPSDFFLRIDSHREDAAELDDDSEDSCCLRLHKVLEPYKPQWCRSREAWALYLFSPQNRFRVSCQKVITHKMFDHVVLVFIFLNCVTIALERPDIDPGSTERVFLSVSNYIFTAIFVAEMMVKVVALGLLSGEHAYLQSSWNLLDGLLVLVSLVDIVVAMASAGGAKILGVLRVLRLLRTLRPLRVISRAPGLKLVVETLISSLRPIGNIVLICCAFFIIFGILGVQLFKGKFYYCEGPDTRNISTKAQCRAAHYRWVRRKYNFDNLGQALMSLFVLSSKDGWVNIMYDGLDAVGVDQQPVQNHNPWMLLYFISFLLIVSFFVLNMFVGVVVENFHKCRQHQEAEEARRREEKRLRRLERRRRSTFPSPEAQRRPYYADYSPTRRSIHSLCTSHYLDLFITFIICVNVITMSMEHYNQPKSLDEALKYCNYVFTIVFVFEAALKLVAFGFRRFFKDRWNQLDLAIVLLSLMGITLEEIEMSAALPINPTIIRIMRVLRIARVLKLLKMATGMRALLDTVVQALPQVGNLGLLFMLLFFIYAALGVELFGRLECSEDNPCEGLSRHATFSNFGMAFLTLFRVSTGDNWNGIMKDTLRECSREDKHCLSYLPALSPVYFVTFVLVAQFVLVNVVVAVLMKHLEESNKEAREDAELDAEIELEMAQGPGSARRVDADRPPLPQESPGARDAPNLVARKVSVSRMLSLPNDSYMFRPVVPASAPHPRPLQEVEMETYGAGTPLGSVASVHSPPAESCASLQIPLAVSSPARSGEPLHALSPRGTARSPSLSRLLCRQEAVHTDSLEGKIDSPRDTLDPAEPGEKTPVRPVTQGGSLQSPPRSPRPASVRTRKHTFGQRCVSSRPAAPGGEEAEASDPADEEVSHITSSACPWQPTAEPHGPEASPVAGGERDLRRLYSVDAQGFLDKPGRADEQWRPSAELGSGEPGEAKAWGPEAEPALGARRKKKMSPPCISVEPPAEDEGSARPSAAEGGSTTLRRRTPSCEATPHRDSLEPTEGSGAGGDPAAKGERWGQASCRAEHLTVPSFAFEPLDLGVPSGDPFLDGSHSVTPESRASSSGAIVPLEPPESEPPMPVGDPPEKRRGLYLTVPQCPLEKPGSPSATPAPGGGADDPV

- IC50: 3 nM
SMILES: Fc1ccc(CN(CC(F)(F)F)C2CCN(CCCc3c[nH]c4ccc(Cn5cncn5)cc34)CC2)cc1 [TTA-I1, N-(4-fluorobenzyl)-1-{3-[5-(1H-1,2,4-triazol-1-ylmethyl)-1H-indol-3-yl]propyl}-N-(2,2,2-trifluoroethyl)piperidin-4-amine]
